Where “and” joins values, the source holds several entries; their conditions need not be identical. Equal entries are not always repeated. Where a SMILES comes first, the peptide text is derived from it.
What was measured:
[1] = test system: Murine norovirus strain 1 (MNV-1); experiment: Attachment assay, MNV-1; type: cell-based; details: attachment: cells with peptide 80 µM and virus together 1 h at 4 °C, mean ± SD
Experimental: (§1) Four sets of experiments were performed to suppose the effect of RiLK1 and RiLK3 on HAV and MNV-1 [29]. To this aim, 80 µM solutions of the two peptides and HAV and MNV-1 suspensions at a final concentration of 4.7 ± 0.2 log TCID50/mL and 4.5 ± 0.2 log TCID50/mL, respectively, were used in the following experiments: • i) A virus pre-treatment assay to assess the direct interaction between the virus and peptide: the incubation of the peptide with viral suspension for 1 h at room temperature was carried out, followed by its incubation on cells for 1 h at 37 °C. Then, cell monolayers were washed twice with PBS and incubated with 500 µL DMEM/MEM supplemented with 2% of FBS to determine the TCID50/mL. • ii) A cell pre-treatment assay to assess the interaction between the peptide and cells before the viral infection: cell monolayers were preincubated with 100 µL of peptide solution for 1 h at 37 °C, followed by the removal of the peptide, addition to cells of viral suspensions for 1 h at 37 °C, washing step, and culture with 2% FBS DMEM/MEM. • iii) An attachment assay to assess the possible action of the peptide at the stage of virus attachment to cells: cell monolayers were incubated with 100 µL of a suspension containing both the peptide and virus and were incubated for 1 h at 4 °C. Subsequently, the cell monolayers were washed with PBS and incubated for 1 h at 37 °C with a culture medium followed by a washing step and the addition of culture with 2% FBS DMEM/MEM. • iv) An entry assay to assess the possible action of the peptide at the stage of virus internalization into cells: cell monolayers were incubated with 100 µL of the viral suspension for 1 h at 4 °C, followed by the addition of the peptide and incubation for 1 h at 37 °C. Cells were then washed with PBS, and 2% FBS DMEM/MEM was finally added.
(§2) Untreated viral suspensions and peptide solutions, incubated at the same conditions, were used as controls.
(§3) For each treatment, the average and standard deviation of the triplicate analyses were calculated. The virucidal effects of AMPs was assessed by calculating the log reduction value (LRV), i.e., the difference between the infectious titer (log-transformed) of untreated versus treated samples. The statistical significance of differences between treated and untreated samples was determined through one-way analysis of variance (ANOVA) with Bonferroni post hoc comparisons, with a significance level of p < 0.05 (GraphPad Prism v9.5.0, software San Diego, CA, USA).

[2] = test system: Hepatitis A virus (HAV) strain HM-175; experiment: Cell pre-treatment assay, HAV; type: cell-based; details: cell pre-treatment: cells with peptide 80 µM 1 h 37 °C, peptide removed, then virus 1 h 37 °C, mean ± SD
Experimental: as §1, §2, §3

[3] = test system: Murine norovirus strain 1 (MNV-1); experiment: Entry assay, MNV-1; type: cell-based; details: entry: cells with virus 1 h at 4 °C, then peptide 80 µM 1 h 37 °C, mean ± SD
Experimental: as §1, §2, §3

[4] = test system: Hepatitis A virus (HAV) strain HM-175; experiment: Entry assay, HAV; type: cell-based; details: entry: cells with virus 1 h at 4 °C, then peptide 80 µM 1 h 37 °C, mean ± SD
Experimental: as §1, §2, §3

[5] = cited from earlier work; for structural stability: pH 2; for conformation in mimicked membrane solutions (self-aggregation): ref [41],[42],[43],[44],[45]
Experimental: In this context, to acquire important information on how the conformational properties of peptides might influence the structure–function relationships and their distinct membrane interaction profiles, the propensity of the new peptides, RiLK30 and AVP2, to adopt a defined secondary structure and to undergo conformational changes were examined by circular dichroism and fluorescence spectroscopy. These analyses were performed in the presence of a negatively charged SDS that is commonly used as a biomimetic membrane model to study the structural features of membranotropic molecules. In previous ...

[6] = test system: Hepatitis A virus (HAV) strain HM-175; experiment: Attachment assay, HAV; type: cell-based; details: attachment: cells with peptide 80 µM and virus together 1 h at 4 °C, mean ± SD
Experimental: as §1, §2, §3

[7] = test system: Murine norovirus strain 1 (MNV-1); experiment: Virus pre-treatment assay, MNV-1; type: cell-based; details: virus pre-treatment: peptide 80 µM with virus 1 h at RT, mean ± SD; for Viral Titre: then on RAW 264.7 cells 1 h 37 °C
Experimental: as §1, with “Subsequently, the cell monolayers were washed with PBS and incubated for 1 h at 37 °C with a culture medium followed by a washing step and the addition of culture with 2% FBS DMEM/MEM. • iv) An entry assay to assess the possible action of the peptide at the stage of virus internalization into cells: cell monolayers were incubated with 100 µL of the viral suspension for 1 h at 4 °C, followed by the addition of the peptide and incubation for 1 h at 37 °C. Cells were then washed with PBS, and 2% FBS DMEM/MEM was finally added.” left out
as §3

[8] = type: physicochemical
Experimental: Circular Dichroism (CD) analysis was performed by a Jasco J-810 spectropolarimeter. The samples were loaded into a quartz cuvette of 0.1 cm path length (Hellma Analytics), and the spectra were recorded in the 195–250 nm range at a scan speed of 20 nm/min, averaging 5 scans. CD experiments were carried out in 10 mM Tris-HCl buffer, pH 7.0, as a function of SDS concentrations (3, 50, and 150 mM) at a peptide concentration of 50 µM. The folding kinetic measurements of the peptides were performed after the addition of SDS (50 mM) to each sample (50 µM in 10 mM Tris-HCl, pH 7.0) up to 24 h of incubation. For thermal stability analyses, the peptides were prepared to a final concentration of 50 μM in 10 mM Tris-HCl, pH 7.0, and then they were incubated at 4 and 25 °C up to 48 h before acquiring the CD spectra in the presence of 50 mM SDS. A blank spectrum of a sample containing all components except the peptide was acquired for the baseline correction of the CD spectra of the peptide. The mean residue ellipticity ([θ], deg cm^2 dmol^−1) was obtained by the equation [θ] = 100 θ/cnl, where θ is the ellipticity (mdeg), c is the peptide concentration (mM), n is the number of residues, and l is the path length (cm).
Tryptophan (Trp) fluorescence emission spectra were recorded at 25 °C on a Shimadzu RF-6000 spectrofluorometer (Kyoto, Japan), with both excitation and emission slit widths set at 5 nm. The intrinsic Trp was excited at a wavelength of 280 nm and the emission was monitored between 300 and 400 nm. Fluorescence measurements were carried out in 10 mM Tris-HCl buffer, pH 7.0, as a function of SDS concentrations (3, 50, and 150 mM) at a peptide concentration of 50 µM. The folding kinetic experiments of AVP2 and RiLK30 were performed after the addition of SDS (50 mM) to each sample (50 µM concentration in 10 mM Tris-HCl buffer, pH 7.0) up to 24 h of incubation. The effect of temperature on peptide folding was analyzed by dissolving the peptides at a final concentration of 50 µM in 10 mM Tris-HCl buffer, pH 7.0, and incubating them at 4 and 25 °C up to 48 h. The spectra were recorded in the presence of 50 mM SDS.

Molecule	LRV [1]	Viral Titre [1]	LRV [2]	Viral Titre [2]	LRV [3]	Viral Titre [3]	LRV ([3]; listed as RilLK1)	LRV [4]	Viral Titre [4]	structural stability [5]	conformation in mimicked membrane solutions (self-aggregation) [5]	LRV [6]	Viral Titre [6]	Viral Titre [7]	thermal (conformational) stability in SDS micellar solution ([8]; pH 7)	conformational rearrangement over time (CD and fluorescence spectra) ([8]; peptide 50 µM, 10 mM Tris-HCl pH 7.0, SDS 50 mM, 24 h incubation at 37 °C (legend: 25 °C))	self-aggregation (CD in SDS) ([8]; peptide 50 µM, 10 mM Tris-HCl pH 7.0, SDS 3, 50, 150 mM, 25 °C)	LRV ([7]; then on cells 1 h 37 °C)
CC[C@H](C)[C@H](NC(=O)[C@H](CCCNC(=N)N)NC(=O)[C@@H](NC(=O)[C@H](Cc1c[nH]c2ccccc12)NC(=O)[C@H](CCCCN)NC(=O)[C@H](CC(C)C)NC(=O)[C@@H](N)CCCNC(=N)N)C(C)C)C(=O)N[C@@H](Cc1c[nH]c2ccccc12)C(=O)N[C@@H](CCCNC(=N)N)C(=O)N[C@@H](CCCNC(=N)N)C(N)=O [RiLK1] (H-RLKWVRIWRR-NH2; N-terminus assumed)	1.4 logTCID50/mL and 1.4 ± 0.4 logTCID50/mL	3.1 ± 0.2 logTCID50/mL	0.1 ± 0.3 logTCID50/mL	4.6 ± 0.1 logTCID50/mL	1.0 ± 0.4 logTCID50/mL	3.5 ± 0.2 logTCID50/mL	1.0 logTCID50/mL	0.1 ± 0.3 logTCID50/mL	4.6 ± 0.1 logTCID50/mL	high structural stability	higher-ordered self-aggregates	1.4 logTCID50/mL and 1.4 ± 0.4 logTCID50/mL	3.3 ± 0.2 logTCID50/mL	3.3 ± 0.2 logTCID50/mL				
KLRWVKIWKK-NH2 [RiLK30, newly designed RiLK1 derivative, Arg residues exchanged with Lys and Lys3 with Arg]															at least 48 h	did not appear to undergo significant changes	high propensity to self-aggregate	
RLRWVRIWRR-NH2 [RiLK3, RiLK1 analog differing by one amino acid (Lys replaced with Arg), C-terminally amidated]	1.0 logTCID50/mL and 1.0 ± 0.3 logTCID50/mL	3.5 ± 0.1 logTCID50/mL	0.9 logTCID50/mL and 0.9 ± 0.4 logTCID50/mL	3.8 ± 0.2 logTCID50/mL	1.0 ± 0.3 logTCID50/mL	3.5 ± 0.1 logTCID50/mL		0.5 ± 0.4 logTCID50/mL	4.2 ± 0.2 logTCID50/mL	high structural stability	higher-ordered self-aggregates	1.0 logTCID50/mL and 1.0 ± 0.4 logTCID50/mL	3.7 ± 0.2 logTCID50/mL	4.5 ± 0.1 logTCID50/mL				0 ± 0.3 logTCID50/mL
